Among the data in ChEMBL document CHEMBL1833878, “Cyclodepsipeptides, sesquiterpenoids, and other cytotoxic metabolites from the filamentous fungus Trichothecium sp. (MSX 51320)” (J Nat Prod, 2011) are IC50, EC50 and MIC values, retold here.

A short description of test [1]: Cytotoxicity against human HTB-177 cells. In kind it is functional, cell-based.
The next test deals with MCF7. Briefly: Cytotoxicity against human MCF7 cells. The class given is functional, cell-based.
In a further test the test system is NCI-H460. Description: Cytotoxicity against human NCI-H460 cells. The class given is functional, cell-based.
A further test deals with SF-268. Briefly: Cytotoxicity against human SF268 cells. In kind it is functional, cell-based.
Test [2] in a line: Cytotoxicity against human HTB-38 cells. The class given is functional, cell-based.
Test [3] can be described thus: Cytotoxicity against human HTB-129 cells. In kind it is functional, cell-based.
Another test has as its system MDA-MB-435. Description: Cytotoxicity against human MDA-MB-435 cells. In kind it is functional, cell-based.
In another test the test system is HT-29. Briefly: Cytotoxicity against human HT-29 cells. In kind it is functional, cell-based.
The subject of test [4] is Staphylococcus epidermidis. Briefly: Antibacterial activity against Staphylococcus epidermidis. In kind it is functional.
Another test relates to Enterococcus durans. Description: Antibacterial activity against Enterococcus durans. The class given is functional.

≈ marks a conversion by molar mass, not a printed value. *1 amine or outer side, *2 acyl side, *3 side chain or, on linkers, in order; H or OH if unused. Where a SMILES comes first, the peptide text is derived from it. [ ]: non-standard residue; d: D form. X1 = CC(C)(O)[C@H](O[*:1])C(=O)[*:2]; dNMeF = CN[C@H](Cc1ccccc1)C(=O)O; Hica(2S) = CC(C)C[C@H](O)C(=O)O; NMeL = CN[C@@H](CC(C)C)C(=O)O; Hiv = CC(C)[C@H](O)C(=O)O; NMeA = CN[C@@H](C)C(=O)O

Broadly, the IC50 is the point on the concentration scale where inhibition reaches its midpoint. High values mean lower potency, low ones higher potency. `COC(=O)[C@@H]1O[C@@H](O)C(=O)[C@]2(C(O)/C=C(C)/C=C/C=C(\C)CCC=C(C)C)O[C@H]12` (some centres undefined) [TRICHOTHOSPORON A]: the concentration for half-maximal inhibition (IC50) (in test [1]; in the test on MCF7; in the test with NCI-H460; in the test on SF-268) was greater than 10 µM in each case.

As to `C/C=C\C(=O)O[C@@H]1CC2O[C@@H]3C=C(C)[C@@H](O)C4OCC2(O)[C@@]1(C)[C@]43C` (some centres undefined), the IC50 (in test [1]; with MCF7; in the test with NCI-H460; in the test with SF-268) was greater than 10 µM in each case.

`CC(C)C[C@@H]1OC(=O)[C@H](C(C)C)OC(=O)[C@H](CO)NC(=O)[C@H](C(C)C)NC(=O)[C@H](CC(C)C)N(C)C(=O)[C@H](Cc2ccccc2)NC1=O` [TRICHODEPSIPEPTIDE B] (cyclo(F[NMeL]VS[Hiv][Hica(2S)])): the half-inhibitory concentration (IC50) (in test [1]; in the test on MCF7; in the test on NCI-H460; in [2]; in test [3]; with MDA-MB-435) was greater than 10 µM each time. For the same molecule, the half-inhibitory concentration (IC50) with HT-29 and in the test with SF-268 was greater than 10 µM each time.

Consider `CC(C)C[C@@H]1NC(=O)[C@H](CC(C)C)N(C)C(=O)[C@H](Cc2ccccc2)NC(=O)[C@H](CC(C)C)OC(=O)[C@H](C(C)C)OC(=O)[C@H](CO)NC1=O` [TRICHODEPSIPEPTIDE] (cyclo(F[NMeL]LS[Hiv][Hica(2S)])), for which the IC50 (in [1]; in the test on MCF7; with NCI-H460; in test [2]; in test [3]; in the test with MDA-MB-435) was greater than 10 µM throughout. Moreover, the 50% inhibitory concentration (IC50) with HT-29 and in the test with SF-268 was greater than 10 µM in each case.

In general, EC50 refers to the concentration at which the effect is half-maximal. High values mean a less potent agent, low ones a more potent agent. A word on the MIC: it is the lowest concentration that inhibits growth of the organism. Consider `CC(C)C[C@@H]1OC(=O)[C@H](C)NC(=O)[C@H](C(C)(C)O)OC(=O)[C@H](C)N(C)C(=O)[C@@H](C)NC(=O)[C@@H](Cc2ccccc2)N(C)C1=O` [GUANGOMIDE A] (cyclo(A[Hica(2S)][dNMeF][dA][NMeA][X1])), for which the half-maximal effective concentration (EC50) in the test on MCF7, in the test with NCI-H460 and with SF-268 was 15 µM throughout. Also, the minimal inhibitory concentration (MIC) (in [4]; in the test with Enterococcus durans) was 100 µg/mL (≈ 162 µM) each time.
